Common to all, as to assay type: cell-based
One assay addresses T1, endogenous HRas (Homo sapiens, UniProt P01112).
T1 construct: endogenous in cells; host or cells: HeLa
The assay can be described thus: Acyl resin-assisted capture detection of HRas palmitoylation in HeLa cells. The conditions noted are these: HeLa cells. How it is done: HeLa cells were grown to confluency in 10 cm plates. Stock solutions of compounds were prepared in DMSO as before and diluted to the final indicated concentration in 5.5 mL of OptiMEM media before adding to cells. Cells were incubated at 37° C. for 20 min and then media removed and 3 mL of HBSS added to each plate. Cells were detached using a cell scraper, pelleted by centrifugation at 1,000 rcf for 5 min and the pellet processed using a CAPTUREome S-Palmitoylated Protein Kit (Badrilla, UK) according to the manufacturer's protocol. Samples were resolved by electrophoresis using 4-20% SDS-polyacrylamide gels (Bio-Rad) under denaturing and reducing conditions. Proteins were then electrotransferred to a PVDF membrane (Bio-Rad). The membrane was blocked with 3% BSA and then subjected to immunoblot analysis using Anti-GTPase HRAS antibody (ab97488) (Abcam), Calnexin Antibody (2433S) (Cell Signaling Technology), Gα(i) Antibody (5290S) (Cell Signaling Technology), SNAP25 Antibody (5308S) (Cell Signaling Technology), Flotillin-2 Antibody (3436S) (Cell Signaling Technology), CD44 Antibody (3570S) (Cell Signaling Technology), Lyric/Metadherin Antibody (14065S) (Cell Signaling Technology), Flotillin-1 Antibody (3253S) (Cell Signaling Technology) and secondary goat anti-rabbit IgG-HRP (sc-2030) (Santa Cruz Biotechnology) or goat anti-mouse IgG HRP (ThermoFisher). Chemiluminescent detection was performed by using SuperSignal West Pico PLUS chemiluminescent substrate (ThermoFisher) according to the manufacturer's instructions.
Assays were performed in 3 biological replicates. Each replicate involved the analysis of 4 to 5 conditions side-by-side. Western blots were analyzed using ImageJ^1. The intensity of the protein band in each cleaved bound fraction (palmitoylated protein fraction) was normalized to the intensity of the corresponding input fraction (total protein fraction). The values within individual S 4 replicates were normalized to the control or vehicle condition and reported as means±SD. An unpaired t test was performed to determine the significance between means.

In another assay the target is T2, flotillin-2 (Homo sapiens, UniProt Q14254).
T2 construct: we detected the palmitoylation levels of eight known palmitoylated proteins after treatment with 1; endogenous in cells; host or cells: HeLa
T2 sequence (Q14254 1-428): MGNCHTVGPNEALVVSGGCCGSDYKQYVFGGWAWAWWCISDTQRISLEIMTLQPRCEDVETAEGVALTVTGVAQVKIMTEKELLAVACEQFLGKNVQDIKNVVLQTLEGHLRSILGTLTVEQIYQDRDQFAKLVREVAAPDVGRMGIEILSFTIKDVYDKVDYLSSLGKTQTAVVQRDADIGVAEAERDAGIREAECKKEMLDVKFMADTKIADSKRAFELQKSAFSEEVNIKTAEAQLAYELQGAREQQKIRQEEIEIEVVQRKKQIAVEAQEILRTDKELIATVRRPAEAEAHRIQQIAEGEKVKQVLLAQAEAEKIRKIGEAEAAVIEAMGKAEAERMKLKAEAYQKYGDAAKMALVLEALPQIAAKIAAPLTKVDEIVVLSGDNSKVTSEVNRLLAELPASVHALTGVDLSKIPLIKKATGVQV
Briefly: Acyl resin-assisted capture detection of flotillin-2 palmitoylation in HeLa cells. The conditions noted are these: 1.25 μmol/10^7 cells, relative to vehicle. How it is done: (§1) HeLa cells were grown to confluency in 10 cm plates. Stock solutions of compounds were prepared in DMSO as before and diluted to the final indicated concentration in 5.5 mL of OptiMEM media before adding to cells. Cells were incubated at 37° C. for 20 min and then media removed and 3 mL of HBSS added to each plate. Cells were detached using a cell scraper, pelleted by centrifugation at 1,000 rcf for 5 min and the pellet processed using a CAPTUREome S-Palmitoylated Protein Kit (Badrilla, UK) according to the manufacturer's protocol. Samples were resolved by electrophoresis using 4-20% SDS-polyacrylamide gels (Bio-Rad) under denaturing and reducing conditions. Proteins were then electrotransferred to a PVDF membrane (Bio-Rad). […]
(§2) Assays were performed in 3 biological replicates. […] Western blots were analyzed using ImageJ^1. […]

A further assay deals with T3, CD44 (Homo sapiens, UniProt P16070).
T3 construct: we detected the palmitoylation levels of eight known palmitoylated proteins after treatment with 1; endogenous in cells; host or cells: HeLa
The assay can be described thus: Acyl resin-assisted capture detection of CD44 palmitoylation in HeLa cells. The conditions noted are these: 1.25 μmol/10^7 cells, relative to vehicle. How it is done: as §1, §2

Another assay deals with EGFP-KRas4b. Briefly: Live-cell imaging of EGFP-KRas4b localization in HeLa cells. As to conditions: 1.25 μmol/10^7 cells. How it is done:
Imaging was performed on an Axio Observer Z1 inverted microscope (Carl Zeiss Microscopy Gmb, Germany) with Yokogawa CSU-X1 spinning disk confocal unit using a 63×, 1.4 NA oil immersion or 20×, 0.8 NA objective to an ORCA-Flash4.0 V2 Digital CMOS camera (Hamamatsu, Japan). For live cell imaging, an incubation chamber with temperature and CO2 controllers (World Precision Instruments) was utilized. Fluorophores were excited with s diode laser (488 nm; 30 mW). Images were acquired using Zen Blue software (Carl Zeiss) and processed using Image J.^1 HeLa cells were plated at 40,000 cells/well in an 8-well Lab-Tek chamber slide (ThermoFisher) and allowed to adhere overnight. Cells were transfected with mEGFP-HRas or mEGFP-KRas4b using Lipofectamine 2000 (ThermoFisher) according to the manufacturer's protocol. 50 mM stocks of compounds 1 and 2 were prepared by dissolving the solid compound in DMSO containing 100 mM tris(2-S 3 carboxyethyl)phosphine hydrochloride (TCEP) as a preservative. From these stocks, a solution of 200 μM [1 or 2] (with 400 μM TCEP), or 400 μM TCEP was prepared in OptiMEM media. Before imaging, cells were exchanged into OptiMEM media. The diluted solutions were added to the indicated final concentration within individual wells of the chamber slide and cells imaged while maintaining 37° C., 5% CO2 in the incubation chamber. […]

Another assay has as its target T4, flotillin-1 (Homo sapiens, UniProt O75955).
T4 construct: we detected the palmitoylation levels of eight known palmitoylated proteins after treatment with 1; endogenous in cells; host or cells: HeLa
T4 sequence (O75955 1-427): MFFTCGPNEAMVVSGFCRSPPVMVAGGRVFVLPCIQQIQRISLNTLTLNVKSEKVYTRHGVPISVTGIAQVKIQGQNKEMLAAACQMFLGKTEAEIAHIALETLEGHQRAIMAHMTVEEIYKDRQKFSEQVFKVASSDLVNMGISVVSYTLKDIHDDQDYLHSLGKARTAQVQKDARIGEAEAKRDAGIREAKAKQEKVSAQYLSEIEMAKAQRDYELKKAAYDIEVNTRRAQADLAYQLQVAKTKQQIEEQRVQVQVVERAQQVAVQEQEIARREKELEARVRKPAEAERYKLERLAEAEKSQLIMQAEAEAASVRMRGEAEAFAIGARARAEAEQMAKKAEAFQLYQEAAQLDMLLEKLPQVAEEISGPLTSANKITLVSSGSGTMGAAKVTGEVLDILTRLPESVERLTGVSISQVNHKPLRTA
The assay can be described thus: Acyl resin-assisted capture detection of flotillin-1 palmitoylation in HeLa cells. As to conditions: 1.25 μmol/10^7 cells, relative to vehicle. How it is done: as §1, §2

The subject of a further assay is Gα(i). The assay can be described thus: Acyl resin-assisted capture detection of Gα(i) palmitoylation in HeLa cells. The conditions noted are these: 1.25 μmol/10^7 cells, relative to vehicle. How it is done: as §1, §2

T1 sequence (P01112 whole entry): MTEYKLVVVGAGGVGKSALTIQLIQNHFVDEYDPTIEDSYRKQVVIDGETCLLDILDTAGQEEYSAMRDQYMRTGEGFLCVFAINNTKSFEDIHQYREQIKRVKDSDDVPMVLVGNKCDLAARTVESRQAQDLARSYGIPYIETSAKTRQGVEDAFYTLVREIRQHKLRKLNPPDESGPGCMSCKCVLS
T3 sequence (P16070 21-742): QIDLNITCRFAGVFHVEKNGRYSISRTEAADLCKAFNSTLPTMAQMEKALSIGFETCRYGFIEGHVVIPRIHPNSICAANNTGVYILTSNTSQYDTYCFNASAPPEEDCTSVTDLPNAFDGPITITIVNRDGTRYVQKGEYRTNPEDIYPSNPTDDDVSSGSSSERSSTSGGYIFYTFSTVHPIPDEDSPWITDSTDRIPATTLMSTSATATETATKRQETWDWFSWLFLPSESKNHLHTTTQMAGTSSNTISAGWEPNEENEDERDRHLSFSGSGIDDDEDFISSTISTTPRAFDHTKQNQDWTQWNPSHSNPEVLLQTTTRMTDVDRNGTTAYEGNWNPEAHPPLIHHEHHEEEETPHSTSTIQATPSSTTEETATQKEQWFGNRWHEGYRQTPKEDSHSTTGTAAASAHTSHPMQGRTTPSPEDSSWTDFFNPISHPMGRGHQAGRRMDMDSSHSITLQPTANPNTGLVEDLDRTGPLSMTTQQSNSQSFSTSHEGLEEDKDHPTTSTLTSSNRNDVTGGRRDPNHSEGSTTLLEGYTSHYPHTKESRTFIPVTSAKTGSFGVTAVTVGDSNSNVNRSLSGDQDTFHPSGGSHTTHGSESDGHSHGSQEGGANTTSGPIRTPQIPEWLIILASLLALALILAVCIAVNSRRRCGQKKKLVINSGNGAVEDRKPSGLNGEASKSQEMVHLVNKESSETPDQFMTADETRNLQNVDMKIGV

As to `CCCCCCCCNC(=O)[C@@H](N)CS` [compound 1, H2N-L-Cys-Oct], on endogenous HRas (1.25 μmol/10^7 cells, relative to vehicle), the “reduction of palmitoylation level of HRas” value is on record as greater than 80%. Further, the “depalmitoylation of HRas in the presence of palmostatin B (PB)” value at endogenous HRas (1.25 μmol/10^7 cells, with APT-1/2 inhibitor PB) is recorded as “efficiently depalmitoylated HRas”. Also, the “HRas palmitoylation over a range of concentrations” value at endogenous HRas (0.31-1.25 μmol/10^7 cells, 20 min) is listed as “decreased in a dose-dependent manner”. At endogenous HRas (20 min, 1 at 1.25 μmol/10^7 cells, same experiments with TCEP alone or compound 2), the “depalmitoylation of HRas” value is given as “near complete depalmitoylation”. The “reduction of palmitoylation level of flotillin-2” value at flotillin-2 is 19-40%. Also, on CD44, the “reduction of palmitoylation level of CD44” value is reported as greater than 80%. Besides, in the assay on EGFP-KRas4b, the “EGFP-KRas4b protein localization (fluorescence)” value is “no change in protein localization”. Further, at flotillin-1, the “reduction of palmitoylation level of flotillin-1” value is on record as 19-40%. For the same compound, the “reduction of palmitoylation level of Gα(i)” value with Gα(i) is greater than 80%.

For the origin of these results see US20210023065A1, “AMPHIPHILIC THIOL COMPOUNDS AND USES THEREOF” (THE REGENTS OF THE UNIVERSITY OF CALIFORNIA, priority 2018, published 2021).
